Key:
Sphaerotheca fuliginea = experiment: Activity against mildew on cucumber leaves caused by Sphaerotheca fuliginea, protective application (Sphrfu P1), greenhouse; format: in vivo; details: Comparative Example 1, Table 9, cucumber seedlings, 7 days, untreated 90
Description: (§1) The active compounds were prepared separately or jointly as a stock solution comprising 25 mg of active compound which was made up to 10 ml using a mixture of acetone and/or DMSO and the emulsifier Wettol EM 31 (wetting agent having emulsifying and dispersing action based on ethoxylated alkylphenols) in a volume ratio of solvent/emulsifier of 99:1. The mixture was then made up to 100 ml with water. This stock solution was diluted with the solvent/emulsifier/water mixture described to give the concentration of active compounds stated below.
Leaves of potted cucumber seedlings were, at the cotyledon stage, sprayed to runoff point with an aqueous suspension having the active compound concentration stated below. 20 hours after the spray coating had dried on, the plants were inoculated with an aqueous spore suspension of mildew of cucumber (Sphaerotheca fuliginea). The plants were then cultivated in a greenhouse at temperatures between 20 and 24° C. and 60 to 80% relative atmospheric humidity for 7 days. The extent of the mildew development was then determined visually in % infection of the cotyledon area.

[1] = system: Pyrenophora [syn. Drechslera] teres; experiment: Activity against net blotch of barley caused by Pyrenophora teres, 1 day protective application (Pymte P1), greenhouse; format: in vivo, Pyrenophora teres on barley; details: Comparative Example 2, Table 10, barley seedlings, 6 days, untreated 90
Description: as §1
Leaves of potted barley seedlings were sprayed to runoff point with an aqueous suspension having the active compound concentration stated below. 24 hours after the spray coating had dried on, the test plants were inoculated with an aqueous spore suspension of Pyrenophora [syn. Drechslera] teres, the net blotch pathogen. The test plants were then placed in a greenhouse at temperatures between 20 and 24° C. and at 95 to 100% relative atmospheric humidity. After 6 days, the extent of the development of the disease was determined visually in % infection of the entire leaf area.

| SMILES | Infection in % at 63 ppm for Sphrfu P1 (Sphaerotheca fuliginea) [%] | Infection in % at 4 ppm for Pyrnte P1 [1] [%] |
| --- | --- | --- |
| Cc1ccccc1[C@H]1O[C@]1(Cn1cncn1)c1ccc(F)cc1F [B 255 from EP-A 0 421 125] | 90 | – |
| Cc1ccccc1[C@H]1O[C@]1(Cn1cncn1)c1cc(F)c(F)cc1F (racemic) [Compound 8.7] | 0 | – |
| Fc1ccc([C@@]2(Cn3cncn3)O[C@@H]2c2ccccc2Cl)cc1 [Comp. 8 of EP-A 0 196 038] | – | 90 |
| Fc1cc(F)c([C@@]2(Cn3cncn3)O[C@@H]2c2ccccc2Cl)cc1F (racemic) [Compound 8.6] | – | 40 |

From patent publication US20120225777A1, “Azolylmethyloxiranes, Their Use for Controlling Phytopathogenic Fungi and Compositions Comprising Them” (BASF SE, priority 2006, published 2012)
